# Assay results from patent US10774053B2, “HIV protease inhibitors” (Gilead Sciences, Inc., priority 2017, dated 2020).
# pEC50: −log10 of the molar value.
# Tested on: HIV-1 (IIIB) in MT-4 cells
# Experiment: microbe, parasite or virus in culture
# Assay type: cell-based
# Details: Human immunodeficiency virus 1, IIIB, MT4, MT-4 cells, HIV-1; read-out: MT4 EC50
# Procedure: Compounds were serially diluted (1:3) in DMSO on 384-well polypropylene plates and further diluted 200-fold into complete RPMI media (10% FBS, 1% P/S) using the Biotek Micro Flow and Agilent ECHO acoustic dispenser. Each plate contained up to 8 test compounds, with negative (No Drug Control) and 5 uM AZT positive controls. MT-4 cells were pre-infected with 10 uL of either RPMI (mock-infected) or a fresh 1:250 dilution of an HIV-1 (IIIB) concentrated virus stock. Infected and uninfected MT-4 cells were further diluted in complete RPMI media and added to each plate using a Micro Flow dispenser. After 5 days incubation in a humidified and temperature controlled incubator (37° C.), Cell Titer Glo (Promega) was added to the assay plates to quantify the amount of luciferase.
row,Structure (SMILES),pEC50
1,CC(C)(C)C[C@]1(c2ccc(-c3cnccn3)cc2)NC(=N)N([C@H](COC(=O)NC2CC2)c2ccc(Cl)c(-c3ncn[nH]3)c2)C1=O [Compound 28],7.04
2,CC(C)(C)C[C@]1(c2ccc(-c3cnn(C(F)F)c3)cc2)NC(=N)N([C@H](COC(=O)NC2CC2)c2ccc(Cl)c(-c3nc(Cl)c(Cl)[nH]3)c2)C1=O [Compound 23],7.15
3,CC(C)(C)C[C@]1(c2ccc(-c3ccn(C4CC4)n3)cc2F)NC(=N)N([C@H](COC(=O)NC2(C(F)(F)F)CC2)c2ccc(Cl)c(-n3ncnc3C(F)F)c2)C1=O [Compound 215],7.73
4,CN(C)C(=O)OC[C@H](c1ccc(Cl)c(-c2nc(-c3ccccc3)cs2)c1)N1C(=N)N[C@@](c2cc(F)cc(F)c2)(C2CC2)C1=O [Compound 6],5.24
5,CC(C)(C)C[C@]1(c2ccc(-c3cnn(C(F)F)c3)cc2)NC(=N)N([C@H](COC(=O)NC2(C)CC2)c2ccc(Cl)c(-c3ncnn3C3CC3)c2)C1=O [Compound 43],8.09
6,CC(C)(C)C[C@]1(c2ccc(-c3cnn(C(F)F)c3)cc2)NC(=N)N([C@H](COC(=O)NC2(C)CC2)c2ccc(Cl)c(-n3cccn3)c2)C1=O [Compound 258],7.55
7,CN(C)C(=O)OC[C@H](c1ccc(Cl)c(-c2nccs2)c1)N1C(=N)N[C@@](c2cc(F)cc(F)c2)(C2CC2)C1=O [Compound 5],5.24
8,CC(C)(C)C[C@]1(c2ccc(-c3cnn(C(F)F)c3)cc2)NC(=N)N([C@H](COC(=O)NC2CC2)c2ccc(Cl)c(-c3ncnn3C(F)F)c2)C1=O [Compound 35],7.01
9,CC(C)(C)C[C@]1(c2ccc(C(F)(F)F)cc2)NC(=N)N([C@H](COC(=O)NC2(C(F)(F)F)CC2)c2ccc(Cl)c(-n3ncnc3C(F)F)c2)C1=O [Compound 373],7.30
10,CC(C)(C)C[C@]1(c2ccc(-c3cnn(C(F)F)c3)cc2)NC(=N)N([C@H](COC(=O)NC(C)(C)C(F)F)c2ccc(Cl)c(-c3ncn(C(F)F)n3)c2)C1=O [Compound 69],7.49
11,CC(C)(C)C[C@]1(c2ccc(-c3ncccn3)cc2)NC(=N)N([C@H](CO)c2ccc(Cl)c(-n3cncn3)c2)C1=O [Compound 245],6.62
12,CC(C)(C)C[C@]1(c2ccc(-c3cnn(C4CC4)n3)c(F)c2F)NC(=N)N([C@H](COC(=O)NC2(C(F)(F)F)CC2)c2ccc(Cl)c(-n3ncnc3C(F)F)c2)C1=O [Compound 227],7.60
13,Cn1ccc(-c2ccc([C@@]3(CC(C)(C)C)NC(=N)N([C@H](COC(=O)NC4(C(F)(F)F)CC4)c4ccc(Cl)c(-n5ncnc5C(F)F)c4)C3=O)c(F)c2)n1 [Compound 210],8.16
14,C[C@H](NC(=O)OC[C@H](c1ccc(Cl)c(-c2ncnn2C(F)F)c1)N1C(=N)N[C@](CC(C)(C)C)(c2ccc(-c3cn(C45CC(C4)C5)nn3)c(F)c2)C1=O)C(F)(F)F [Compound 148],7.86
15,CC(C)(C)C[C@]1(c2ccc(-c3cnn(C(F)F)c3)cc2)NC(=N)N([C@H](COC(=O)N[C@H]2C[C@H]2F)c2ccc(Cl)c(-n3ncnc3C(F)F)c2)C1=O [Compound 288],8.22
16,CC(C)(C)C[C@]1(c2ccc(-c3cn(C4CC4)nn3)cc2)NC(=N)N([C@H](COC(=O)NC2(C(F)(F)F)CC2)c2ccc(Cl)c(-c3ncnn3C(F)F)c2)C1=O [Compound 137],7.71
17,CC(C)(C)C[C@]1(c2ccc(-c3cnccn3)cc2)NC(=N)N([C@H](COC(=O)NC2(C(F)(F)F)CC2)c2ccc(Cl)c(-c3ncn[nH]3)c2)C1=O [Compound 27],7.09

row,Structure (SMILES),pEC50
1,CC(C)(C)C[C@]1(c2ccc(-c3cnn(C(F)F)c3)cc2)NC(=N)N([C@H](COC(=O)N[C@@H]2C[C@H]2C(F)F)c2ccc(Cl)c(-n3ncnc3C(F)F)c2)C1=O [Compound 333],7.98
2,CC(C)(C)C[C@]1(c2ccc(-c3cnn(S(C)(=O)=O)c3)c(F)c2)NC(=N)N([C@H](COC(=O)NC2CC2(F)F)c2ccc(Cl)c(-n3ncnc3C(F)F)c2)C1=O (stereo partly drawn) [Compound 293],7.98
3,CC(C)(C)C[C@]1(c2ccc(-c3cnn(C(F)F)c3)cc2)NC(=N)N([C@H](COC(=O)NC2CC2)c2ccc(Cl)c(-c3cncn3C(F)F)c2)C1=O [Compound 37],6.66
4,CC(C)(C)C[C@]1(c2ccc(N3CCn4c(nnc4C(F)(F)F)C3)cc2)NC(=N)N([C@H](COC(=O)NC2(C(F)(F)F)CC2)c2ccc(Cl)c(-n3ncnc3C(F)F)c2)C1=O [Compound 326],7.28
5,CC(C)(C)C[C@]1(c2ccc(-c3cnn(C(F)F)c3)cc2)NC(=N)N([C@H](COC(=O)NC2(C(F)(F)F)CC2)c2ccc(F)c(-c3ncnn3C(F)F)c2)C1=O [Compound 123],7.55
6,COc1ccc([C@@]2(CC(C)(C)C)NC(=N)N([C@H](COC(=O)N(C)C)c3ccc(Cl)c(-c4ccccn4)c3)C2=O)c(F)c1 [Compound 8],6.56
7,CC(C)(F)C[C@]1(c2ccc(Br)cc2)NC(=N)N([C@H](COC(=O)NC(C)(C)C(F)F)c2ccc(Cl)c(-c3ncnn3C(F)F)c2)C1=O [Compound 126],6.62
8,CC(C)(C)C[C@]1(c2ccc(-c3cnn(C(F)F)c3)cc2)NC(=N)N([C@H](COc2ccc(F)cc2F)c2ccc(Cl)c(-n3ncnc3C(F)F)c2)C1=O [Compound 365],6.85
9,CC1(NC(=O)OC[C@H](c2ccc(Cl)c(-n3cccn3)c2)N2C(=N)N[C@](CC(C)(C)C(F)(F)F)(c3ccc(-c4cnn(C5CC5)c4)cc3)C2=O)CC1 [Compound 324],7.56
10,CC(C)(C)C[C@]1(c2ccc(-c3cnn(C(F)F)c3)cc2)NC(=N)N([C@H](CO)c2ccc(Cl)c(-c3ncn[nH]3)c2)C1=O [Compound 42],6.99
11,CC(C)(C)C[C@]1(c2ccc(-c3cnn(C(F)F)c3)cc2)NC(=N)N([C@H](COC(=O)N[C@H]2C[C@@H]2C(F)F)c2ccc(Cl)c(-n3ncnc3C(F)F)c2)C1=O [Compound 332],7.91
12,[H]/N=C1\N[C@](CC(C)(C)C)(c2ccc(-c3cnn(C(F)F)c3)cc2F)C(=O)N1[C@H](COC(=O)NC1CC1)c1ccc(Cl)c(-c2ncccc2C)c1 [Compound 12],7.65
13,CC(C)(C)C[C@]1(c2ccc(-c3ccsn3)cc2)NC(=N)N([C@H](COC(=O)NC2(C(F)(F)F)CC2)c2ccc(Cl)c(-n3ncnc3C(F)F)c2)C1=O [Compound 276],7.90
14,Cn1nccc1-c1ccc([C@@]2(CC(C)(C)C)NC(=N)N([C@H](COC(=O)NC3(C(F)(F)F)CC3)c3ccc(Cl)c(-n4ncnc4C(F)F)c3)C2=O)cc1 [Compound 205],7.70
15,CC(C)(C)C[C@]1(c2ccc(-c3cnn(C(F)F)c3)cc2)NC(=N)N([C@H](COC(=O)NC2(C)CC2)c2ccc(Cl)c(-c3ncn[nH]3)c2)C1=O [Compound 31],7.29
16,CC(C)(C)C[C@]1(c2ccc(-c3cnn(C(F)F)c3)cc2)NC(=N)N([C@H](COC(=O)NC(C)(C)C)c2ccc(Cl)c(-n3cncn3)c2)C1=O [Compound 241],8.08
17,C[C@H](NC(=O)OC[C@H](c1ccc(Cl)c(-c2ncnn2C(F)F)c1)N1C(=N)N[C@](CC(C)(C)C2CC2)(c2ccc(-c3cnn(C4CC4)n3)cc2)C1=O)C(F)(F)F [Compound 150],8.00

# Same assay, conditions: Human immunodeficiency virus 1, IIIB, MT4, read-out: MT4 EC50 (nM)
row,Structure (SMILES),EC50
1,[H]/N=C1\N[C@](CC(C)(C)C)(c2ccc(-c3cnn(C(F)F)c3)cc2F)C(=O)N1[C@H](COC(=O)NC1CC1)c1ccc(Cl)c(-c2ncccc2Cl)c1 [Compound 13],310 nM
2,CC(C)(C)C[C@]1(c2ccc(-c3cnn(C(F)F)c3)cc2)NC(=N)N([C@H](COC(=O)Nc2ccccc2)c2ccc(Cl)c(-n3ncnc3C(F)F)c2)C1=O [Compound 180],23.7 nM
